Data from publication PMC1298333, “Biochemical characterization of the Arctic char (Salvelinus alpinus) ovarian progestin membrane receptor” (Reproductive biology and endocrinology : RB&E, 2005).

What follows are compounds tested against T1, 17,20beta-P membrane receptor (ovarian membrane progestin receptor, mPR) (assay: radioligand saturation, filtration assay, Scatchard). Settings: labelled compound ([3H]-17,20β-P); ovarian membranes, pH 7.4, +4°C, 30 min.
T1 construct: gene paqr7; native receptor in crude ovarian plasma membrane fraction (20,000 g pellet)
Assay type: binding, Salvelinus alpinus
Compound C[C@@H](O)[C@@]1(O)CC[C@H]2[C@@H]3CCC4=CC(=O)CC[C@]4(C)[C@H]3CC[C@@]21C [17,20β-P, 17,20beta-dihydroxy-4-pregnen-3-one] has a Kd of 13.8 ± 1.1 nM.

These compounds were tested against T1, 17,20beta-P membrane receptor (ovarian membrane progestin receptor, mPR) (assay: competition with [3H]-17, […]β-P, filtration assay). Settings: 7 nM [3H]-17,20β-P, ovarian membranes, pH 7.4, +4°C, 30 min; read-out: Concentration (nM) causing 50% displacement.
Assay type: binding, Salvelinus alpinus
Compound Clc1ccc(C(c2ccccc2Cl)C(Cl)Cl)cc1 (stereo not drawn) [o,p'-DDD] has an IC50 of 549 nM.
With C[C@]12CC[C@@H]3c4ccc(O)cc4CC[C@H]3[C@@H]1CC[C@@H]2O [E2, 17β-estradiol] the IC50 was 37.9 nM.
In the case of CC(=O)[C@H]1CC[C@H]2[C@@H]3CCC4=CC(=O)CC[C@]4(C)[C@H]3CC[C@]12C [P4, progesterone], the IC50 is reported as 52.6 nM.
In the case of CC(=O)[C@@]1(O)CC[C@H]2[C@@H]3CCC4=CC(=O)CC[C@]4(C)[C@H]3CC[C@@]21C [17α-OH-P, 17α-hydroxyprogesterone], the IC50 is reported as 69.3 nM.
For C[C@]12CCC(=O)C=C1CC[C@@H]1[C@@H]2CC[C@@]2(C)[C@H]1CC[C@]2(O)[C@H](O)CO [20β-S, 17, 20β, 21-trihydroxy-4-pregnen-3-one], the IC50 was 145 nM.
Compound C[C@]12CCC(=O)C=C1CC[C@@H]1[C@@H]2[C@@H](O)C[C@@]2(C)[C@H]1CC[C@]2(O)C(=O)CO [F, cortisol] has an IC50 of 14400 nM.
C[C@]12CC[C@H]3[C@@H](CCC4=CC(=O)CC[C@@]43C)[C@@H]1CC[C@@H]2C(=O)CO [11-DOC, 11-deoxycorticosterone] gave an IC50 of 132 nM.
ZK 112992 gave an IC50 of 1180 nM.
For CN(C)c1ccc([C@H]2C[C@]3(C)[C@@H](CC[C@]3(O)CCCO)[C@@H]3CCC4=CC(=O)CCC4=C32)cc1 [ZK 98299], the IC50 was 12900 nM.
With Clc1ccc(C(c2ccccc2Cl)C(Cl)(Cl)Cl)cc1 (stereo not drawn) [o,p'-DDT] the IC50 was 378 nM.
With C[C@]12CC[C@H]3[C@@H](CCC4=CC(=O)CC[C@@]43C)[C@@H]1CC[C@@H]2O [T, testosterone] the IC50 was 18300 nM.
CC(C)C(=O)Nc1ccc([N+](=O)[O-])c(C(F)(F)F)c1 [Flutamide] was tested, and the IC50 was 256 nM.
C[C@]12CCC(=O)C=C1CC[C@@H]1[C@@H]2CC[C@@]2(C)[C@H]1CC[C@]2(O)C(=O)CO [DC, 11-deoxycortisol] was tested, and the IC50 was 207 nM.
For C[C@@H](O)[C@@]1(O)CC[C@H]2[C@@H]3CCC4=CC(=O)CC[C@]4(C)[C@H]3CC[C@@]21C [17,20β-P, 17,20beta-dihydroxy-4-pregnen-3-one], the IC50 was 1.25 nM.
